Consider eleven molecules from patent publication US5266566A, “Method of treating fungal infections using sterodial ester compounds” (British Technology Group Limited, priority 1989, dated 1993).

Values after ≈ are worked out from the molar mass of the structure shown. “Also recorded” adds a separate entry of the source. Like-named read-outs stand apart in the source and are kept apart here.

Usually MIC stands for the smallest concentration in the dilution series that meets the test's criterion for growth inhibition.

Holding throughout (assay): Disc diffusion antifungal test (zones of inhibition, approximate MIC)
Common to all, as to format: cell-based
For orientation: Agar diffusion results depend on both activity and mobility in agar.

For assay [1], the system named is Candida albicans NCYC 597. The settings on record: for MIC: Candida albicans; for Activity against Candida albicans (in words): result in words. On the procedure:
(§1) Candida albicans NCYC 597; Trichophyton mentagrophytes NCPF 224 and Microsporum audonii NCPF 638 were used throughout as test organisms. These are open deposits at the National Collection of Yeast Cultures, Norwich UK and the National Collection of Pathogenic Fungi of the Commonwealth Mycological Institute, Kew UK.
(§2) All organisms were maintained in a nutrient broth containing (gl^-1): Lab Lemco (Oxoid), 5; Peptone (Oxoid), 5; NaCl, 10. Cultures for testing antimicrobial activity were grown in this medium for 18 h prior to use. Solidified media were prepared by the addition of Agar (Oxoid No. 3) 1.5% w/v.
(§3) Antifungal activity was estimated using solutions of the compound (as the free acid) in dimethyl sulphoxide. A range of concentrations was used for each compound to permit calculation of an approximate MIC. 13 mm discs (Whatman) were soaked in a solution of the appropriate dilution, either allowed to dry, or placed directly onto the surface of nutrient agar plates seeded with the required test organism.
(§4) After 24 h incubation the diameters of zones of inhibition were measured. After a further 24 h incubation, the plates were re-examined and zones re-measured. The compounds were tested in three groups.

The test system of assay [2] is Trichophyton mentagrophytes NCPF 224. As to the method: as §1, §2, §3, §4
For assay [3], the system named is Microsporum audonii NCPF 638. The settings on record: for MIC: Microsporum. As to the method: as §1, §2, §3, §4
The mark [4] stands for this setting: NCPF224, Table 3, Group 3 tests, read-out: MIC T. ment.
Where [5] appears, read: NCPF638, Table 3, Group 3 tests, read-out: MIC M. aud.
Where [6] appears, read: NCPF224, Table 2, Group 2 tests, read-out: MIC Trichophyton mentagrophytes.
Setting [7] is: NCPF638, Table 2, Group 2 tests, read-out: MIC Microsporum audonii.
Setting [8] is: NCYC597, read-out: MIC C. albicans, Table 1, Group 1 tests.
The mark [9] stands for this setting: NCPF224, Table 1, Group 1 tests, read-out: MIC T. ment.
Where [10] appears, read: NCPF638, Table 1, Group 1 tests, read-out: MIC M. aud.
[11] abbreviates: NCYC597, read-out: MIC Candida albicans, Table 2, Group 2 tests.
[12] abbreviates: NCPF224, read-out: MIC T. ment., Table 1, Group 1 tests.
The mark [13] stands for this setting: NCPF224, read-out: MIC Trichophyton mentagrophytes, Table 2, Group 2 tests.
The mark [14] stands for this setting: NCPF638, read-out: MIC M. aud., Table 1, Group 1 tests.
Setting [15] is: NCPF638, read-out: MIC Microsporum audonii, Table 2, Group 2 tests.
Where [16] appears, read: NCYC597, read-out: MIC C. albicans, Table 3, Group 3 tests.
Setting [17] is: NCYC597, Table 1, Group 1 tests, read-out: MIC C. albicans.

On to `CCCCOC(=O)CC[C@@H](C)[C@H]1CC[C@H]2[C@@H]3[C@H](O)C[C@@H]4C[C@H](O)CC[C@]4(C)[C@H]3CC[C@]12C` [Butyl chenodeoxycholate, n-butyl chenodeoxycholate], for which, in assay [1] (Table 3, Group 3 tests), the “MIC C. albicans” value is given as “no effect”. Also, the MIC in assay [2] (setting [4]) amounted to 1500 µg/mL (≈ 3340 µM); in assay [3] (setting [5]), 1000 µg/mL (≈ 2230 µM).
`CCCCOC(=O)CC[C@@H](C)[C@H]1CC[C@H]2[C@@H]3CC[C@@H]4C[C@H](O)CC[C@]4(C)[C@H]3C[C@H](O)[C@]12C` [Butyl deoxycholate, n-butyl deoxycholate]: the results for the MIC in assay [2] (setting [6]) and in assay [3] (setting [7]) were 850 µg/mL (≈ 1890 µM) and 875 µg/mL (≈ 1950 µM), respectively.
As to `CCCCOC(=O)CC[C@@H](C)[C@H]1CC[C@H]2[C@@H]3CC[C@@H]4C[C@H](O)CC[C@]4(C)[C@H]3CC[C@]12C` [Butyl lithocholate, n-butyl lithocholate], the values for the MIC in assay [2] (setting [6]) and in assay [3] (setting [7]) were 1100 µg/mL (≈ 2540 µM) and 900 µg/mL (≈ 2080 µM), respectively.
For `C[C@H](CCC(=O)O)[C@H]1CC[C@H]2[C@@H]3[C@H](O)C[C@@H]4C[C@H](O)CC[C@]4(C)[C@H]3CC[C@]12C` [Chenodeoxycholic acid, reference compound], the MIC in assay [1] (setting [8]) came out at 140 µg/mL (≈ 357 µM); in assay [2] (setting [9]), 1300 µg/mL (≈ 3310 µM); in assay [3] (setting [10]), 1000 µg/mL (≈ 2550 µM).
With `C[C@H](CCC(=O)O)[C@H]1CC[C@H]2[C@@H]3[C@H](O)C[C@@H]4C[C@H](O)CC[C@]4(C)[C@H]3C[C@H](O)[C@]12C` [Cholic acid, reference compound], the minimal inhibitory concentration (MIC) in assay [1] (setting [8]) is 390 µg/mL (≈ 955 µM); in assay [1] (setting [11]) it was 405 µg/mL (≈ 991 µM); in assay [2] (setting [12]), 10000 µg/mL (≈ 24500 µM); in assay [2] (setting [13]), about 10000 µg/mL (≈ 24500 µM); in assay [3] (setting [14]), 5500 µg/mL (≈ 13500 µM); in assay [3] (setting [15]) it was about 5000 µg/mL (≈ 12200 µM).
For the molecule `C[C@H](CCC(=O)O)[C@H]1CC[C@H]2[C@@H]3CC[C@@H]4C[C@H](O)CC[C@]4(C)[C@H]3C[C@H](O)[C@]12C` [Deoxycholic acid, reference compound], the MIC in assay [1] (setting [8]) came to 2100 µg/mL (≈ 5350 µM); in assay [1] (setting [16]), 1800 µg/mL (≈ 4590 µM); in assay [1] (setting [11]), 2000 µg/mL (≈ 5090 µM); in assay [2] (setting [9]), 300 µg/mL (≈ 764 µM); in assay [2] (setting [6]) it was 310 µg/mL (≈ 790 µM); in assay [2] (setting [4]), 250 µg/mL (≈ 637 µM). The results for the minimum inhibitory concentration (MIC) in assay [3] (setting [10]), in assay [3] (setting [7]) and in assay [3] (setting [5]) were 30 µg/mL (≈ 76.4 µM), 35 µg/mL (≈ 89.2 µM) and 40 µg/mL (≈ 102 µM), respectively. In assay [1], the “Activity against Candida albicans (in words)” value is recorded as “poorer action against Candida”. For the same molecule, the “Activity against Microsporum audonii (in words)” value in assay [3] (result in words) is recorded as “very highly effective; also recorded: effective”.
As to `C[C@H](CCC(=O)O)[C@H]1CC[C@H]2[C@@H]3CC[C@@H]4C[C@H](O)CC[C@]4(C)[C@H]3CC[C@]12C` [Lithocholic acid, reference compound], the MIC was determined as 410 µg/mL (≈ 1090 µM) in assay [1] (setting [17]) and 100 µg/mL (≈ 266 µM) in assay [3] (setting [10]).
`COC(=O)CC[C@@H](C)[C@H]1CC[C@H]2[C@@H]3[C@H](O)C[C@@H]4C[C@H](O)CC[C@]4(C)[C@H]3CC[C@]12C` [Methyl chenodeoxycholate, methyl chenodeoxycholate]: the MIC in assay [1] (setting [8]) is 20 µg/mL (≈ 49.2 µM); in assay [1] (setting [16]), 1000 µg/mL (≈ 2460 µM); in assay [2] (setting [12]), 460 µg/mL (≈ 1130 µM); in assay [2] (NCPF224, read-out: MIC T. ment., Table 3, Group 3 tests), 1000 µg/mL (≈ 2460 µM); in assay [3] (setting [14]), 30 µg/mL (≈ 73.8 µM); in assay [3] (NCPF638, read-out: MIC M. aud., Table 3, Group 3 tests) it was 800 µg/mL (≈ 1970 µM).
For `COC(=O)CC[C@@H](C)[C@H]1CC[C@H]2[C@@H]3[C@H](O)C[C@@H]4C[C@H](O)CC[C@]4(C)[C@H]3C[C@H](O)[C@]12C` [Methyl cholate, methyl cholate], the MIC stood at 3500 µg/mL (≈ 8280 µM) in assay [1] (setting [17]), 80 µg/mL (≈ 189 µM) in assay [2] (setting [9]) and 50 µg/mL (≈ 118 µM) in assay [3] (setting [10]).
As to `COC(=O)CC[C@@H](C)[C@H]1CC[C@H]2[C@@H]3CC[C@@H]4C[C@H](O)CC[C@]4(C)[C@H]3C[C@H](O)[C@]12C` [Methyl deoxycholate, methyl deoxycholate], the MIC in assay [1] (setting [17]) was determined as 20 µg/mL (≈ 49.2 µM); in assay [1] (NCYC597, Table 2, Group 2 tests, read-out: MIC Candida albicans) it was 31 µg/mL (≈ 76.2 µM); in assay [1] (NCYC597, Table 3, Group 3 tests, read-out: MIC C. albicans) it was 28 µg/mL (≈ 68.9 µM); in assay [2] (setting [9]), 900 µg/mL (≈ 2210 µM); in assay [2] (setting [6]) it was 250 µg/mL (≈ 615 µM); in assay [2] (setting [4]) it was 500 µg/mL (≈ 1230 µM). Moreover, the values for the MIC in assay [3] (setting [10]), in assay [3] (setting [7]) and in assay [3] (setting [5]) were 520 µg/mL (≈ 1280 µM), 200 µg/mL (≈ 492 µM) and 450 µg/mL (≈ 1110 µM), respectively. In addition, the “Homogeneity of effect in the zone of inhibition” value in assay [1] (Group 2 tests, many resistant colonies in the zone) is given as “not homogeneous”. Also, the “Activity against Candida albicans (in words)” value in assay [1] is recorded as “highly effective; also recorded: outstanding”.
As to `COC(=O)CC[C@@H](C)[C@H]1CC[C@H]2[C@@H]3CC[C@@H]4C[C@H](O)CC[C@]4(C)[C@H]3CC[C@]12C` [Methyl lithocholate, methyl lithocholate], the minimum inhibitory concentration (MIC) was found to be 1000 µg/mL (≈ 2560 µM) in assay [2] (setting [13]) and 950 µg/mL (≈ 2430 µM) in assay [3] (setting [15]).
